Here are results for ten molecules from US11384075B2, “Quinolinone compounds” (Janssen Pharmaceutica NV, priority 2017, dated 2022).

Each structure is given as a SMILES string. Like-named read-outs stand apart in the source and are kept apart here.

The target in experiment [1] is T1, human FGFR3 wild type enzyme (cytoplasmic domain) (Homo sapiens, UniProt P22607).
T1 construct: human FGFR3 wild type enzyme (cytoplasmic domain, from Carna Biosciences); purchased Carna Biosciences
The experiment is described as follows: FGFR3 wild type mobility shift assay (enzymatic assay). It is filed as biochemical. Conditions: 75 μM ATP, 50 minutes at 30° C., Caliper EZ reader II. As to the method: FGFR3 Wild Type Mobility Shift Assay (Enzymatic Assay)
(§1) In a final reaction volume of 25 μL, 0.04 ng/μL human FGFR3 wild type enzyme (cytoplasmic domain, from Carna Biosciences) was incubated with 75 μM ATP, 1 μM FL-peptide 30 substrate and 250 nL of testing compound (1% DMSO final) in assay buffer (100 mM HEPES pH 7.4, 10 mM MgCl2, 0.003% Brij35, 1 mM DTT). After incubation for 50 minutes at 30° C. the reaction was stopped with 10 μL of 0.5M EDTA pH 8.0, and then 25 μL of reaction mixture was transferred to reading plate and measured on Caliper EZ reader II. The substrate-product conversion rate was used as raw data for normalization and concentration-response curve (10 dose points with 4× serial dilution, starting with 10 μM) was plotted using Prism to calculate IC50 (M), pIC50 (−log IC50) and HillSlope value.

The target in experiment [2] is T2, human FGFR3 V555M enzyme (cytoplasmic domain carrying V555M mutation) (Homo sapiens, UniProt P22607, V555M).
T2 construct: human FGFR3 V555M enzyme (cytoplasmic domain carrying V555M mutation, from Carna Biosciences); purchased Carna Biosciences
T2 sequence (P22607 397-806 V555M limits assumed): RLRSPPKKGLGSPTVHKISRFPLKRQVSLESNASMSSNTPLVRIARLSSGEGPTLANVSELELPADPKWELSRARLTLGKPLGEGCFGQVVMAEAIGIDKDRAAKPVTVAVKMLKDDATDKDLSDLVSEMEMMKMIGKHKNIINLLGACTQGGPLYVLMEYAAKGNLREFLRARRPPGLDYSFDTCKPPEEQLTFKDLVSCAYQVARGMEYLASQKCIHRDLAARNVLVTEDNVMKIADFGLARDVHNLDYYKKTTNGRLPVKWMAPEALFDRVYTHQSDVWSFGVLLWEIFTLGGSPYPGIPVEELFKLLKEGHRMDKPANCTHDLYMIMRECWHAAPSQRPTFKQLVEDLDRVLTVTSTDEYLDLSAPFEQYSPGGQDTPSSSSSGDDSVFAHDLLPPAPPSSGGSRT
The experiment in a line: FGFR3 V555M mobility shift assay (enzymatic assay). It is filed as biochemical. Particulars: 30 μM ATP, 45 minutes at 30° C., Caliper EZ reader II. On the procedure: FGFR3 V555M Mobility Shift Assay (Enzymatic Assay)
as §1, with “FGFR3 V555M” for “FGFR3 wild type”, “(cytoplasmic domain carrying V555M mutation,” for “(cytoplasmic domain,”, “with 30” for “with 75”, “for 45” for “for 50”

Experiment [3] has as its system NIH/3T3 cells transfected with the same control vector. The experiment is described as follows: NIH/3T3 mock cell proliferation assay (counter assay, general toxicity). The class given is cell-based. Particulars: 72-hr incubation, CellTiter Glo, starting with 30 μM, counter assay for general toxicity, read-out: NIH/3T3 MOCK CTG (IC50). On the procedure: NIH/3T3 Mock Cell Proliferation Assay
(§2) In day 1, 90 μL of cell suspension (NIH/3T3 cells transfected with the same control vector as in the above two proliferation assays) (total 30,000 cells per well in growth medium (DMEM containing 1% Glutamax, 10% FBS and 1% Pen/Strep)) was seeded in a 96-well plate and then incubated overnight at 37° C. and 5% CO2. In day 2, 10 μL of growth medium containing 10-fold stock solution of testing compound was added into cell cultures (9 dose points with 3× serial dilution, starting with 30 μM, 0.3% DMSO final). After 72-hr incubation at 37° C. and 5% CO2, in day 5 a volume of 50 μL CellTiter Glo (CTG) reagent was added into cell-containing 96-well plate and the plate was incubated at room temperature for 10 minutes before RLUs (relative light unit) were measured on a microplate reader with luminescence detection module. The RLU value was normalized to survival % and concentration-response curve was plotted using Prism to calculate IC50 (M), pIC50 (−log IC50) and HillSlope value.
On the technique in general: ATP-based viability assays read luminescence as a measure of living cells.

In experiment [4] the target is T3, NIH/3T3 cells overexpressing FGFR3 WT-TACC3 fusion protein (Homo sapiens, UniProt P22607).
T3 construct: NIH/3T3 FGFR3 WT-TACC3 CTG (IC50); other: 72-hr incubation, CellTiter Glo, starting with 10 μM; fused on or other part: Q9Y6A5 (Transforming acidic coiled-coil-containing protein 3)
T3 sequence (P22607 whole entry, change not shown, the tested form may be a part): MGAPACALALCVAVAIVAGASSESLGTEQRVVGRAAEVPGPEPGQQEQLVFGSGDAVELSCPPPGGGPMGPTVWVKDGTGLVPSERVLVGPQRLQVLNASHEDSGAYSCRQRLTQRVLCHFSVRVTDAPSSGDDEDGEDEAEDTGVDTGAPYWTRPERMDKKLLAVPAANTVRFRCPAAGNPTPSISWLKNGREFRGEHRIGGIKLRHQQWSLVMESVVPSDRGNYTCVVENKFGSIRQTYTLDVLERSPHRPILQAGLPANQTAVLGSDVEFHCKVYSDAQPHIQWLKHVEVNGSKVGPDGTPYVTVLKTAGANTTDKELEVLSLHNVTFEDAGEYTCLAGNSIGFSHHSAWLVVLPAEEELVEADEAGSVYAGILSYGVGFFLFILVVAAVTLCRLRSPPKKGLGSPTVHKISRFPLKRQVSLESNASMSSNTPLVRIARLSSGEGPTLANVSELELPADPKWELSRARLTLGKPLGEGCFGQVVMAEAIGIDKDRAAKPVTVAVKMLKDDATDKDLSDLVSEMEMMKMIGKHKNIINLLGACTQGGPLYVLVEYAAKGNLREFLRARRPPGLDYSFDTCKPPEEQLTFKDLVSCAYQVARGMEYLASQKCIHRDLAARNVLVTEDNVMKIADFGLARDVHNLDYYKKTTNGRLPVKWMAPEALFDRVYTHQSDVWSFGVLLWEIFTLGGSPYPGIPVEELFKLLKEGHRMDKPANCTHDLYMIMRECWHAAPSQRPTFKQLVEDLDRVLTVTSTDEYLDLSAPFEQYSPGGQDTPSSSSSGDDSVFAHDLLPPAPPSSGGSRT
The experiment is described as follows: NIH/3T3 FGFR3 WT-TACC3 cell proliferation assay. The class given is cell-based. Conditions: 72-hr incubation, CellTiter Glo, starting with 10 μM; read-out: NIH/3T3 FGFR3 WT-TACC3 CTG (IC50). As to the method: NIH/3T3 FGFR3 WT-TACC3 Cell Proliferation Assay
as §2, with “cells overexpressing FGFR3 WT-TACC3 fusion protein)” for “cells transfected with the same control vector as in the above two proliferation assays)”, “with 4×” for “with 3×”, “with 10” for “with 30”, “μM, 0.1%” for “μM, 0.3%”

Experiment [5] concerns the target T4, NIH/3T3 cells overexpressing FGFR3 V555M-TACC3 fusion protein (Homo sapiens, UniProt P22607, V555M, cells depend on it).
T4 construct: NIH/3T3 FGFR3 V555M-TACC3 CTG (IC50); other: 72-hr incubation, CellTiter Glo, starting with 10 μM; fused on or other part: Q9Y6A5 (Transforming acidic coiled-coil-containing protein 3)
The experiment is described as follows: NIH/3T3 FGFR3 V555M-TACC3 cell proliferation assay. Particulars: 72-hr incubation, CellTiter Glo, starting with 10 μM; read-out: NIH/3T3 FGFR3 V555M-TACC3 CTG (IC50). The class given is cell-based. On the procedure: NIH/3T3 FGFR3 V555M-TACC3 Cell Proliferation Assay
as §2, with “cells overexpressing FGFR3 V555M-TACC3 fusion protein)” for “cells transfected with the same control vector as in the above two proliferation assays)”, “with 4×” for “with 3×”, “with 10” for “with 30”, “μM, 0.1%” for “μM, 0.3%”

T1 sequence (P22607 397-806 limits assumed): as the sequence (P22607 397-806 V555M limits assumed) above, with M159V counted along it
T4 sequence (P22607 whole entry V555M, the tested form may be a part): as the sequence (P22607 whole entry, change not shown, the tested form may be a part) above, with V555M counted along it

For `CCCC(Nc1c(-c2nc3ccc(N4CCOCC4)cc3[nH]2)c(=O)[nH]c2ccccc12)c1ncccn1` (single isomer, unassigned) [Compound 31a, (S*)-3-(6-morpholino-1H-benzo[d]imidazol-2-yl)-4-((1-(pyrimidin-2-yl)butyl)amino)quinolin-2(1H)-one], the IC50 in experiment [1] stood at 0.843 nM; in experiment [2], 0.181 nM; in experiment [3] (Mus musculus, NIH3T3, 72 h) it was 2920 nM. Moreover, the GI50 in experiment [4] was determined as 25.7 nM; in experiment [5], 14.3 nM.

As for `C[C@H](Nc1c(-c2nc3ccc(N4CCN(C)C(=O)C4)cc3[nH]2)c(=O)[nH]c2ccccc12)c1ccccn1` [Compound 15, (S)-3-(6-(4-methyl-3-oxopiperazin-1-yl)-1H-benzo[d]imidazol-2-yl)-4-((1-(pyridin-2-yl)ethyl)amino)quinolin-2(1H)-one], the IC50 is 0.851 nM in experiment [1]; 0.351 nM in experiment [2]; 1190 nM in experiment [3] (Mus musculus, NIH3T3, 72 h). Further, the GI50 in experiment [4] amounted to 12.4 nM; in experiment [5], 24.9 nM.

Take `CC(Nc1c(-c2nc3ccc(N4CCOCC4)cc3[nH]2)c(=O)[nH]c2ccccc12)c1cnccn1` (single isomer, unassigned) [Compound 35b, (S*)-3-(6-morpholino-1H-benzo[d]imidazol-2-yl)-4-((1-(pyrazin-2-yl)ethyl)amino)-quinolin-2(1H)-one]: the IC50 came out at 11.1 nM in experiment [1]; 2.86 nM in experiment [2]; 1680 nM in experiment [3] (Mus musculus, NIH3T3, 72 h). In addition, the GI50 in experiment [4] stood at 127 nM; in experiment [5], 197 nM.

As for `C[C@H](Nc1c(-c2nc3ccc(C(=O)N4CCOCC4)cc3[nH]2)c(=O)[nH]c2ccccc12)c1ccccn1` [Compound 20, (S)-3-(6-(morpholine-4-carbonyl)-1H-benzo[d]imidazol-2-yl)-4-((1-(pyridin-2-yl)-ethyl)amino)quinolin-2(1H)-one], the IC50 in experiment [1] was found to be 0.826 nM; in experiment [2], 0.49 nM; in experiment [3] (Mus musculus, NIH3T3, 72 h), 952 nM. Also, the GI50 in experiment [4] worked out at 23.5 nM; in experiment [5], 17.1 nM.

For `C[C@H](Nc1c(-c2nc3ccc(N4CCOC(C(=O)O)C4)cc3[nH]2)c(=O)[nH]c2ccccc12)c1ccccn1` (mixture of isomers) [Compound 60, (Rac)-4-(2-(2-oxo-4-(((S)-1-(pyridin-2-yl)ethyl)amino)-1,2-dihydroquinolin-3-yl)-1H-benzo[d]imidazol-6-yl)morpholine-2-carboxylic acid], the IC50 in experiment [1] was 1.18 nM; in experiment [2], 0.603 nM; in experiment [3] (Mus musculus, NIH3T3, 72 h), greater than 30000 nM. The GI50 in experiment [4] is 1280 nM; in experiment [5] it was 1620 nM.

Consider `CC(Nc1c(-c2nc3cc(C(F)(F)F)c(N4CCC(C(=O)O)CC4)cc3[nH]2)c(=O)[nH]c2ccccc12)c1ncccn1` (single isomer, unassigned) [Compound 58, (S*)-1-(2-(2-oxo-4-((1-(pyrimidin-2-yl)ethyl)amino)-1,2-dihydroquinolin-3-yl)-5-(trifluoromethyl)-1H-benzo[d]imidazol-6-yl)piperidine-4-carboxylic acid], for which the IC50 was found to be 0.545 nM in experiment [1]; 0.382 nM in experiment [2]; 8240 nM in experiment [3] (Mus musculus, NIH3T3, 72 h). The GI50 was 4.19 nM in experiment [4] and 28.9 nM in experiment [5].

For `CC(Nc1c(-c2nc3ccc(N4CCC(OC(F)(F)F)CC4)cc3[nH]2)c(=O)[nH]c2ccccc12)c1ncccn1` (single isomer, unassigned) [Compound 43a, (S*)-4-((1-(pyrimidin-2-yl)ethyl)amino)-3-(6-(4-(trifluoromethoxy)piperidin-1-yl)-1H-benzo[d]imidazol-2-yl)quinolin-2(1H)-one], the IC50 in experiment [1] stood at 1 nM; in experiment [2] it was 0.643 nM; in experiment [3] (Mus musculus, NIH3T3, 72 h), 8270 nM. Moreover, the GI50 in experiment [4] is 20.3 nM; in experiment [5] it was 9.93 nM.

For the molecule `CC(Nc1c(-c2nc3ccc(N4CCOCC4)cc3[nH]2)c(=O)[nH]c2ccccc12)c1ccn(C(C)C)n1` (single isomer, unassigned) [Compound 36b, (S*)-4-((1-(1-isopropyl-1H-pyrazol-3-yl)ethyl)amino)-3-(6-morpholino-1H-benzo[d]-imidazol-2-yl)quinolin-2(1H)-one], the IC50 in experiment [1] turned out to be 7.32 nM; in experiment [2], 2.35 nM; in experiment [3] (Mus musculus, NIH3T3, 72 h), 1520 nM. In addition, the GI50 in experiment [4] was found to be 315 nM; in experiment [5], 170 nM.

Regarding `COC(=O)C1CN(c2ccc3nc(-c4c(N[C@@H](C)c5ccccn5)c5ccccc5[nH]c4=O)[nH]c3c2)CCO1` (single isomer, unassigned) [Compound 62, (R*)-methyl 4-(2-(2-oxo-4-(((S)-1-(pyridin-2-yl)ethyl)amino)-1,2-dihydroquinolin-3-yl)-1H-benzo[d]imidazol-6-yl)morpholine-2-carboxylate], the IC50 in experiment [1] is 2.91 nM; in experiment [2], 1.21 nM; in experiment [3] it was 12700 nM. Besides, the GI50 in experiment [4] turned out to be 389 nM; in experiment [5] it was 451 nM.

`COC(=O)C1CCN(c2ccc3nc(-c4c(N[C@@H](C)c5ccccn5)c5ccccc5[nH]c4=O)[nH]c3c2)CC1` [Compound 7, (S)-Methyl-1-(2-(2-oxo-4-((1-(pyridin-2-yl)ethyl)amino)-1,2-dihydroquinolin-3-yl)-1H-benzo[d]imidazol-6-yl)piperidine-4-carboxylate]: the IC50 was 1.83 nM in experiment [1]; 1.3 nM in experiment [2]; 858 nM in experiment [3] (Mus musculus, NIH3T3, 72 h). Moreover, the GI50 in experiment [4] is 19.8 nM; in experiment [5], 99.7 nM.
